Target: T1, PIN1 (Homo sapiens, UniProt Q13526)
T1 construct: recombinant human PIN1
Assay: trypsin-coupled PPIase assay (kinact/Ki; IC50 […]); LC/MS and MALDI MS/MS show a +[…] Da adduct on C113, absent in C113A
Assay type: biochemical
Conditions: read-out: Ki

T1 sequence (Q13526 whole entry): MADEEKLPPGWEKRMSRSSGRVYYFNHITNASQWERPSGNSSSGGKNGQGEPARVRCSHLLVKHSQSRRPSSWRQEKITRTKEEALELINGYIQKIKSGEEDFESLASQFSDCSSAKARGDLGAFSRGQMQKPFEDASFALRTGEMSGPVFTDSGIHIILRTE

For `CC(C)(C)c1ccc(S(=O)(=O)/N=C2/C=C(SCC(=O)O)C(=O)c3ccccc32)cc1` [compound 1], the KI (inactivation) was 625 ± 325 nM.
